# Test results as given in ChEMBL document CHEMBL1152170 (Bioorg Med Chem Lett, 2008).
# What was measured:
# [1] = Permeability across human Caco-2 cells; type: ADME, cell-based; conditions: read-out: permeability
# [2] = Stability in rabbit liver microsome after 1 hr; type: ADME, Oryctolagus cuniculus; conditions: liver microsomes, read-out: Stability
Papp [1],remaining at 1 h [2],SMILES
17.3 ×10⁻⁶ cm/s,–,COc1ccc(CNc2ncnc3c(CCO)c(OC)c(NC(C)=O)cc23)cc1Cl
–,> 80%,CCCc1c(OC)c(NC(=O)C(F)(F)F)cc2c(NCc3ccc(OC)c(Cl)c3)ncnc12
46.9 ×10⁻⁶ cm/s,> 80%,CCC(=O)Nc1cc2c(NCc3ccc(OC)c(Cl)c3)ncnc2c(CCO)c1OC
